# Experiments:
# DU145 cells [1] = assay: Combination of Example 1 and Metmetlico on the growth of DU145 cells; type: cell-based, human
# Procedure: The cells used correspond to metastatic cells of human prostate cancer DU145. 10^5 DU145 cells are incubated in the various wells of a microplate in 1 ml of culture medium. The test compounds are added 4 hours after placing the cells in the wells. After 72 hours, the cells are removed at different times. The cells are washed twice with PBS and recovered directly with 0.1M sodium chloride. The effect on the growth of DU145 cells is measured by protein assay according to the Lowry method (Lowry, O. H., Rosenbrough, […]. and Randall, J. Biol. Chem. 193, 265-275, (1951)) and DNA assay by the Hoechst method (West, […]. and Kumar, S., Anal. Biochem. 147, 289-295, (1985)). The test compounds are the compound of Example 1, metmetlico and a mixture thereof.
# DU145 cells [2] = assay: Growth of DU145 cells (protein and DNA assay, 72 h); type: cell-based, human; conditions: 50% inhibition of cell growth
# Procedure: The cells used correspond to two cell lines: metastatic cells of human prostate cancer (DU145) and murine lymphoid cells transfected with the human bcl2 gene (BAF3 bcl2).
# The procedure used for the tests on DU145 is as follows: • 10^5 cells are incubated in the various wells of a microplate in 1 ml of culture medium.
# The compounds are added 4 hours after placing the cells in the wells.
# After 72 hours, the cells are removed at different times. The DU145 cells are washed twice with PBS and recovered directly with 0.1M sodium chloride.
# The effect on the growth of the DU145 cells is measured by protein assay according to the Lowry method (Lowry, O. H., Rosenbrough, N. J., Farr, A. L. and Randall, J. Biol. Chem. 193, 265-275, (1951)) and DNA assay by the Hoechst method (West, D. C., Sattar, A. and Kumar, S., Anal. Biochem. 147, 289-295, (1985)).
# The IC50 concentration is the concentration corresponding to a 50% inhibition of cell growth.
# BAF3-bcl2 G18 cells = assay: Apoptosis induction (DNA fragmentation) in BAF3-bcl2 clone G18, 24 h; type: cell-based, mouse
# Procedure: (§1) The BAF3-bcl2 cells correspond to BAF3 cells (mouse lymphocyte cells) tranfected with the bcl2 gene. Among these cells, four lines known as H16, G18, B14 and G21 overexpress the bcl2 gene.
# (§2) Whereas the BAF3-b0 cells undergo apoptosis (more than 80% of the cells) in the absence of interleukin 3 (IL3) in 16 hours [according to Collins, M. K. L., Marvel, J., Malde, P. & Lopez-Rivas, A., J. Exp. Med. 176, 1043-1051, (1992)], the BAF3-bcl2 cells show no sign of apoptosis in the absence of IL3. They are thus apoptosis-resistant.
# (§3) The procedure which was used is as follows: • The BAF3-b0 or BAF3-bcl2 cells, cultured in the presence of IL3, were labelled by a method adapted from that disclosed in Wright, S. et al., J. of Cell. Biochem. 48, 344-355, (1992).
# (§4) 10^5 cells/ml were incubated with 4.62 KBq.ml^−1 [^3H]-thymidine for 40 hours at 37° C. After two washes with culture medium, 2.5×10^6 cells were cultured in the presence of the test compound.
# (§5) After incubating for 24 hours, these cells were recovered by centrifugation at 400×g for 5 minutes and washed 3 times with PBS buffer. The cells recovered in the pellet were lysed in 2 ml of 0.1% Triton X-100, 20 mM EDTA, 5 mM Tris pH 8 and centrifuged at 30 000×g at 4° C. for 30 minutes.
# (§6) The supernatants were recovered and the pellets dissolved in 0.3 ml of 0.5N NaOH.
# (§7) Aliquots of the culture medium (1 ml), of the supernatant (0.3 ml) and of the dissolved pellet (0.1 ml) were assayed in a scintillation counter.
# (§8) The percentage of DNA fragments is calculated in the following way:
# (§9) The percentage of fragmentation of the DNA is a direct measure of the apoptosis which the cells have undergone.
# L1210 cells = assay: Growth of L1210 cells (viable cell count, Trypan blue); type: cell-based, mouse; conditions: 50% inhibition of growth
# Procedure: The cells used correspond to various cell lines: human lung normal embryonic fibroblasts (MRC5), mouse melanoma cells (B16), mouse lymphocytic leukaemia cells (L1210) and L1210T cells obtained by infecting L1210 cells with a retroviral vector bearing human ALDH1 cDNA.
# The procedure used for the tests on the L1210 cells is as follows: • 10^5 cells are incubated in the various wells of a microplate in 1 ml of culture medium. After incubating for 4 hours, the test compounds are added to the wells containing the L1210 cells.
# For the L1210 cells, the growth is measured by counting the viable cells in the presence of 0.1% Trypan blue.
# The IC50 concentration is the concentration corresponding to a 50% inhibition of growth of the cells.
# BAF3-bcl2 H16 cells = assay: Apoptosis induction (DNA fragmentation) in BAF3-bcl2 clone H16, 24 h; type: cell-based, mouse
# Procedure: as §1, §2, §3, §4, §5, §6, §7, §8, §9
# bcl2 H16 cells = assay: DNA fragmentation of bcl2 H16 cells, 6 h incubation; type: cell-based, mouse
# Procedure: as §1, §3, §4, §5, §6, §7, §8, §9
# The procedure for the test given in Table 4 below is identical to the previous procedure except that the incubation time is 6 hours instead of 24 hours: […]
compound,measurement,setting,value
"CSC(=O)C#CC(C)(C)N(C)C [Example 1, S-methyl 4-dimethyl-amino-4-methyl-2-pentynethioate]",% Inhibition of growth of the DU145 cells,DU145 cells [1]; 2 μM,5.8%
same,% Inhibition of growth of the DU145 cells,DU145 cells [1]; 3 μM,16.1%
same,% Inhibition of growth of the DU145 cells,DU145 cells [1]; 4 μM,22.4%
same,IC50,DU145 cells [2],5.9 µM
same,DNA fragmentation (%),"BAF3-bcl2 G18 cells; G18, 1 μM",0.6%
same,DNA fragmentation (%),"BAF3-bcl2 G18 cells; G18, 2 μM",7.3%
same,DNA fragmentation (%),"BAF3-bcl2 G18 cells; G18, 4 μM",52.7%
same,DNA fragmentation (%),"BAF3-bcl2 G18 cells; G18, 8 μM",84.3%
same,IC50,L1210 cells,1.2 µM
same,DNA fragmentation (%),"BAF3-bcl2 H16 cells; H16, 1 μM",2.9%
same,DNA fragmentation (%),"BAF3-bcl2 H16 cells; H16, 2 μM",6.3%
same,DNA fragmentation (%),"BAF3-bcl2 H16 cells; H16, 4 μM",65.3%
same,DNA fragmentation (%),"BAF3-bcl2 H16 cells; H16, 8 μM",94.2%
same,% fragmentation of the DNA of the bcl2 H16 cells,bcl2 H16 cells; 50 μM,2.15%
same,% fragmentation of the DNA of the bcl2 H16 cells,bcl2 H16 cells; 100 μM,0%
same,% fragmentation of the DNA of the bcl2 H16 cells,bcl2 H16 cells; 200 μM,30.4%
same,% fragmentation of the DNA of the bcl2 H16 cells,bcl2 H16 cells; 400 μM,83.8%
same,% fragmentation of the DNA of the bcl2 H16 cells,bcl2 H16 cells; 600 μM,81.5%

# From patent publication US8026231B2, “Aminothiolester compounds, pharmaceutical and cosmetic compositions containing same and uses thereof” (CNRS, priority 2000, dated 2011)
